Test results reported in patent US8609852B2, “Thiazolyl mGluR5 antagonists and methods for their use” (Merck Sharp & Dohme Corp., priority 2004, dated 2013).
Counter-ions that a name gives are not always drawn.

Legend:
hmGluR5a receptor = hmGluR5a receptor (Homo sapiens (Human), UniProt P41594); assay: Calcium Flux Assay; format: cell-based; settings: hmGluR5a/L38-20 cells, glutamate-evoked [Ca2+]i
Description: The activity of compounds was examined against the hmGluR5a receptor stably expressed in mouse fibroblast Ltk− cells (the hmGluR5a/L38-20 cell line). See generally Daggett et al., Neuropharmacology 34:871-886 (1995). Receptor activity was detected by changes in intracellular calcium ([Ca^2+]i) measured using the fluorescent calcium-sensitive dye, fura-2. hmGluR5a/L38-20 cells were plated onto 96-well plates, and loaded with 3 µM fura-2 for 1 h. Unincorporated dye was washed from the cells, and the cell plate was transferred to a custom-built 96-channel fluorimeter (SIBIA-SAIC, La Jolla, Calif.) which is integrated into a fully automated plate handling and liquid delivery system. Cells were excited at 350 and 385 nm with a xenon source combined with optical filters. Emitted light was collected from the sample through a dichroic mirror and a 510 nm interference filter and directed into a cooled CCD camera (Princeton Instruments). Image pairs were captured approximately every 1 s, and ratio images were generated after background subtraction. After a basal reading of 20 s, an EC80 concentration of glutamate ([…]) was added to the well, and the response evaluated for another 60 s. The glutamate-evoked increase in [Ca^2+]i in the presence of the screening compound was compared to the response of glutamate alone (the positive control).

[1] = molecular target: metabotropic glutamate receptor subtype 5 (Rattus norvegicus (Rat), UniProt P31424); assay: [3H]-mGluR5 Antagonist Binding to Rodent Brain Membranes
Description: In accordance with Anderson J J, Rao S P, Rowe B, Giracello D R, Holtz G, Chapman D F, Tehrani L, Bradbury M J, Cosford N D, Varney M A, [^3H]Methoxymethyl-3-[(2-methyl-1,3-thiazol-4-yl)ethynyl]pyridine binding to metabotropic glutamate receptor subtype 5 in rodent brain: in vitro and in vivo characterization. J Pharmacol Exp Ther. 2002 December; 303 (3):1044-51, membranes were prepared (as described in Ransom R W and Stec N L (1988) Cooperative modulation of [^3H]MK-801 binding to the N-methyl-D-aspartate receptor-ion channel complex by L-glutamate, glycine, and polyamines. J Neurochem 51:830-836) using whole rat brain, or mGlu5^+/+ or mGlu5^−/− whole mouse brain.
Binding assays were performed as described in Schaffhauser H, Richards J G, Cartmell J, Chaboz S, Kemp J A, Klingelschmidt A, Messer J, Stadler H, Woltering T and Mutel V (1998) In vitro binding characteristics of a new selective group II metabotropic glutamate receptor radioligand, [^3H]LY354740, in rat brain. Mol Pharmacol 53:228-233) at room temperature with slight modifications. Briefly, membranes were thawed and washed once with assay buffer (50 mM HEPES, 2 mM MgCl2, pH 7.4), followed by centrifugation at 40,000×g for 20 min. The pellet was resuspended in assay buffer and briefly homogenized with a Polytron.
For protein linearity experiments, increasing concentrations of membrane protein were added to 96-well plates in triplicate and binding was initiated by addition of 20 nM [^3H]methoxymethyl-3-[(2-methyl-1,3-thiazol-4-yl)ethynyl]pyridine. The assay was incubated for 2 h and non-specific binding was determined using 10 μM MPEP. The binding was terminated by rapid filtration through glass-fiber filters (Unifilter-96 GF/B plate, Packard) using a 96-well plate Brandel cell harvester. Following addition of scintillant, the radioactivity was determined by liquid scintillation spectrometry. Protein measurements were performed by BioRad-DC Protein assay using bovine serum albumin as the standard.
Saturation binding experiments were performed in triplicate with increasing concentrations of [^3H]methoxymethyl-3-[(2-methyl-1,3-thiazol-4-yl)ethynyl]pyridine (1 pM to 100 nM). The time course of association was measured by the addition of 10 nM [^3H]methoxymethyl-3-[(2-methyl-1,3-thiazol-4-yl)ethynyl]pyridine to the membranes at different time points (0-240 min), followed by filtration. Dissociation was measured by the addition of 100 μM unlabeled methoxymethyl-3-[(2-methyl-1,3-thiazol-4-yl)ethynyl]pyridine at different time points to membranes previously incubated for 3 h with 10 nM [^3H]methoxymethyl-3-[(2-methyl-1,3-thiazol-4-yl)ethynyl]pyridine. For competition experiments, 100 μg membrane protein and 10 nM [^3H]methoxymethyl-3-[(2-methyl-1,3-thiazol-4-yl)ethynyl]pyridine was added to wells containing increasing concentration of the test compound in duplicate (methoxymethyl-3-[(2-methyl-1,3-thiazol-4-yl)ethynyl]pyridine or MPEP). [^3H]-3-Methoxy-5-(pyridin-2-ylethynyl)pyridine may also be used as the radioligand in the procedure described above. (See, Cosford, N. D. P.; Roppe, J.; Tehrani, L.; Seiders, T. J.; Schweiger, E. J. et al. [3H]-Methoxymethyl-MTEP and [3H]-methoxy-PEPy): Potent and selective radioligands for the Metabotropic Glutamate Subtype 5 (mGlu5) Receptor. Bioorg. Med. Chem. Lett. 2003, 13, 351-354.)

Chain of metabotropic glutamate receptor subtype 5 (P31424 21-1203): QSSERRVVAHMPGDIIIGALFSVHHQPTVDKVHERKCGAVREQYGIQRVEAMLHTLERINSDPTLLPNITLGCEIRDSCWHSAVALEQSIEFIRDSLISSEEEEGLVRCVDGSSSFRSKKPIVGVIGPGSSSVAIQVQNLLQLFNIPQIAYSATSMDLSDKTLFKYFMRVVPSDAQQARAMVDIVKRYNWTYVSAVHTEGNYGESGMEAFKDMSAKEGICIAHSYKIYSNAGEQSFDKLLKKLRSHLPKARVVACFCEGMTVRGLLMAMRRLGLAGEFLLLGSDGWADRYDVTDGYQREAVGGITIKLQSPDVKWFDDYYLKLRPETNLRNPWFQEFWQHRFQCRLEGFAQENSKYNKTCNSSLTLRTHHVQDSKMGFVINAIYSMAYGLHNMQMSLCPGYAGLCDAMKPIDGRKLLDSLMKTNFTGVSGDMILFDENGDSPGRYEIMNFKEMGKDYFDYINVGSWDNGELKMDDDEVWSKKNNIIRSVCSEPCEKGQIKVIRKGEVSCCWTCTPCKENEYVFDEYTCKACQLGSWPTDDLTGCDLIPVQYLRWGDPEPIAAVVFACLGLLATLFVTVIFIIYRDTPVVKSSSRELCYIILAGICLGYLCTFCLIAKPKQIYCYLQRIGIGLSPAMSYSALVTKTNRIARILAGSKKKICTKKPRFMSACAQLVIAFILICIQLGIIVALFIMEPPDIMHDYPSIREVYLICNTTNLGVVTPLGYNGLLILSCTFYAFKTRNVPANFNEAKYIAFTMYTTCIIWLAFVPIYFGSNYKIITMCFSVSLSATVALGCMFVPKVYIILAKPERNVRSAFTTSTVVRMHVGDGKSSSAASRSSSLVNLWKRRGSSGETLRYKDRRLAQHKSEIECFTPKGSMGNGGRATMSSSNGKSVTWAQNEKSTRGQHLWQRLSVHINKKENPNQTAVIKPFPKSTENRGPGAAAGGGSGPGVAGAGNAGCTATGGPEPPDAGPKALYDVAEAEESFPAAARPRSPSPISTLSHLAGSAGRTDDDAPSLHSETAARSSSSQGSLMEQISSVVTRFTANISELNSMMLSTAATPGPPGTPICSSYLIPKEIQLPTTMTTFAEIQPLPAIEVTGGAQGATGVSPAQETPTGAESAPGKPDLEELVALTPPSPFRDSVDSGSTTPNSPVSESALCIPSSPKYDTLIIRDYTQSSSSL
Chain of hmGluR5a receptor (P41594 other isoform, or with tags, fused parts or gaps): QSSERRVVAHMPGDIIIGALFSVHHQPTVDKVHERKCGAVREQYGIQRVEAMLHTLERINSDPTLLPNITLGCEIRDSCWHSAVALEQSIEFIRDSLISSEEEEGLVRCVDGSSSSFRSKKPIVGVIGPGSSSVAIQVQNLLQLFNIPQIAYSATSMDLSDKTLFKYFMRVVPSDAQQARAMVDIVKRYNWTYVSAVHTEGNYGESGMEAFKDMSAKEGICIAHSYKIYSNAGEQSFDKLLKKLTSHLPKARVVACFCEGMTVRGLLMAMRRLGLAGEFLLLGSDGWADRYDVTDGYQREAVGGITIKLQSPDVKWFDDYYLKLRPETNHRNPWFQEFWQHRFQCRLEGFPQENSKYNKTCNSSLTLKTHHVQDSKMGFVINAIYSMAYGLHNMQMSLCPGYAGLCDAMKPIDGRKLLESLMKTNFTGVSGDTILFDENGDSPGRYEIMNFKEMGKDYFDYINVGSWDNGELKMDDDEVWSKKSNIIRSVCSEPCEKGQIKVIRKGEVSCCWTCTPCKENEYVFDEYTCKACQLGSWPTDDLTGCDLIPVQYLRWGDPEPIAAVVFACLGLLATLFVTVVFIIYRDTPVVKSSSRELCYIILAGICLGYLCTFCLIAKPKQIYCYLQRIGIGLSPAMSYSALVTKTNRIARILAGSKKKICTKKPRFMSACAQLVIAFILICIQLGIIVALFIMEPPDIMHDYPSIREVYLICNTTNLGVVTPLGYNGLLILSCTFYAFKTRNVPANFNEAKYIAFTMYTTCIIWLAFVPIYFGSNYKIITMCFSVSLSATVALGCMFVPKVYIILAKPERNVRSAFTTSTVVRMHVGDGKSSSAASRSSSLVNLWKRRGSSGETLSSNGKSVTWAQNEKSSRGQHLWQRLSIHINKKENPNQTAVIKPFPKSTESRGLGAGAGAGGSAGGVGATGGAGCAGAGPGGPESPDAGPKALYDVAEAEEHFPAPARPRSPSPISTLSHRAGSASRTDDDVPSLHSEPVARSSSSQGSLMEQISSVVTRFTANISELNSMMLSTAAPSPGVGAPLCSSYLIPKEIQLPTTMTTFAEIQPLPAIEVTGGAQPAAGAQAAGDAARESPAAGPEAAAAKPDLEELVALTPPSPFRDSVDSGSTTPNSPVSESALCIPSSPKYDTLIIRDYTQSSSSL

SMILES | IC50 (hmGluR5a receptor) [nM] | Ki [1] [nM]
Cc1nc(C#Cc2cnc(N3CCCCC3)nc2)cs1 [Example 24, 5-[(2-methyl-1,3-thiazol-4-yl)ethynyl]-2-piperidin-1-ylpyrimidine] | 0.3 | 2.6
Cc1nc(C#Cc2ccc(OC(C)C)nc2)cs1 [Example 26, 2-isopropoxy-5-[(2-methyl-1,3-thiazol-4-yl)ethynyl]pyridinium trifluoroacetate] | 0.1 | 2
CCc1ccccc1-c1ccc(C#Cc2csc(C)n2)cn1 [Example 55] | 7 | 4
Cc1nc(C#Cc2ccc(-n3ccc4ccccc43)nc2)cs1 [Example 39] | 13 | 4
Cc1cc(C#N)cc(-c2ccc(C#Cc3csc(C)n3)cn2)c1 [Example 34] | 18 | 15
COc1ccc(C#N)cc1-c1ccc(C#Cc2csc(C)n2)cn1 [Example 37] | 14 | 10
Cc1nc(C#Cc2ccc(-c3ccccc3CO)nc2)cs1 [Example 44] | 11 | 2
Cc1nc(C#Cc2ccc(-c3c(C)cccc3C)nc2)cs1 [Example 36] | 14 | 3
Cc1nc(C#Cc2ccc(-n3ccc4cccnc43)nc2)cs1 [Example 17, 1-{5-[(2-methyl-1,3-thiazol-4-yl)ethynyl]pyridin-2-yl}-1H-pyrrolo[2,3-b]pyridine] | 0.4 | 3.8
Cc1nc(C#Cc2ccc(N3C(C)CCC3C)nc2)cs1 (stereo not shown) [Example 58] | 7 | 1.5
Cc1nc(C#Cc2ccc(N3C4CCC3CC4)nc2)cs1 [Example 53] | 8 | 8
Cc1nc(C#Cc2cncc(Nc3cccnc3)c2)cs1 [Example 41] | 11 | 5
Cc1nc(C#Cc2ccc(N3CCCC(F)C3)nc2)cs1 (stereo not shown) [Example 61] | 6 | 12
Cc1nc(C#Cc2ccc(-c3ccccc3C)nc2)cs1 [Example 5, 2-(2-methylphenyl)-5-[(2-methyl-1,3-thiazol-4-yl)ethynyl]pyridine] | 6.3 | 1
CSc1ccccc1-c1ccc(C#Cc2csc(C)n2)cn1 [Example 64] | 6 | 0.8
CCC(C)(C)Nc1ccc(C#Cc2csc(C)n2)cn1 [Example 59] | 6 | 4
Cc1nc(C#Cc2ccc(-c3cccc(Cl)c3C)nc2)cs1 [Example 60] | 6 | 1.5
Cc1cccc(-c2ccc(C#Cc3csc(C)n3)cn2)c1 [Example 52] | 8 | 2
Cc1nc(C#Cc2cnc(N3CCCC3C)nc2)cs1 (stereo not shown) [Example 21, 2-(2-methylpyrrolidin-1-yl)-5-[(2-methyl-1,3-thiazol-4-yl)ethynyl]pyrimidine] | 1.5 | 1.5
Cc1nc(C#Cc2ccc(N(C)c3ccccn3)nc2)cs1 [Example 50] | 9 | 12

Continued, values first:

IC50 (hmGluR5a receptor) [nM] | Ki [1] [nM] | SMILES
12 | 7 | Cc1nc(C#Cc2cnc(N3CCCC(CO)C3)nc2)cs1 (stereo not shown) [Example 92]
4 | 8 | CCN(CC)c1ncc(C#Cc2csc(C)n2)cn1 [Example 98]
5 | 7 | CC[C@@H](C)Nc1ccc(C#Cc2csc(C)n2)cn1 [Example 68]
1.5 | 4 | Cc1nc(C#Cc2cncc(Cl)c2)cs1 [Example 90]
2 | 7 | CCCN(C)c1ccc(C#Cc2csc(C)n2)cn1 [Example 86]
1.5 | 6 | Cc1nc(C#Cc2cnc(N3CC=CC3)nc2)cs1 [Example 104]
3.5 | 3 | Cc1nc(C#Cc2cncc(C3CC3)c2)cs1 [Example 76]
2.3 | 23 | Cc1nc(C#Cc2cnc(N3CCSCC3)nc2)cs1 [Example 100]
2 | 24 | Cc1nc(C#Cc2cnc(OC3CCN(C(=O)OC(C)(C)C)CC3)nc2)cs1 [Example 101]
